Measurements from patent US9989533B2, “Anti-TNF induced apoptosis (ATIA) diagnostic markers and therapies” (The United States of America, as represented by the …, priority 2009, dated 2018).
Where two headings read alike, the source gives them in different places.

Key:
ATIA [1] = format: cell-based
A172 cells = assay: apoptosis (annexin positive cells) after cyclohexamide treatment under hypoxia (FIG. 28 top); format: cell-based, human; details: in the presence of CHX
Procedure: (§1) FIG. 28 is two panels that show the effect of cyclohexamide on ATIA stability and cell apoptosis.
(§2) Experiments were performed with small chemical molecules to reduce ATIA levels in cancer cells. Examples of small molecules that can be used include, but are not limited to, cyclohexamide. […] Preferably, […] is administered locally to the tumor.

ATIA [2] = assay: effect of cyclohexamide on ATIA stability, blot (FIG. 28 bottom); format: cell-based, human
Procedure: as §1, §2

ATIA+/+ and ATIA−/− mice = format: in vivo; details: GalN pretreatment, TNFα 2 μg/Kg intravenous, by 8 hr post-treatment
Procedure: (A) is a schematic diagram of ATIA knockout strategy. (B) and (C) show the generation of ATIA+/− ES cells (B) and ATIA+/− and ATIA−/− mice (C) was confirmed by PCR. […] Survival curves of wild-type (n=5) and ATIA KO (n=8) after TNF treatment. […] Tissue sections were analyzed by H&E (left panels) and TUNNEL (right panels) staining.
To determine whether ATIA is able to protect from TNF-induced apoptosis in vivo, a model of TNF-induced hepatitis (26, 27) was used. […] By 8 hr post-treatment, 20% of ATIA+/+ mice as compared to more than 85% of ATIA—mice were moribund (FIG. 5D). […] No other histological differences were noted. […] To further confirm this observation, we also examined TNF-induced apoptosis in ATIA−/− MEFs. Wild-type and ATIA−/− mouse embryonic fibroblast cell lines were established from 10.5-12.5 day old wild-type and ATIA knockout embryos. The cell lines were verified for the loss of ATIA by genomic PCR analysis and western blotting with the anti-ATIA antibody (data not shown). Cells were treated with TNF and varied doses of cyclohexamide (CHX) (FIG. 6A). […] Cell death induced by UV radiation or staurosporine is however, only moderately affected by the loss of ATIA (FIG. 6B).

[3] = system: A172, U87MG and 251 glioblastoma cells; assay: TRAIL-induced cell death in glioblastoma cells (FIG. 19); format: cell-based; details: ATIA-expressing human glioblastoma cells (A172) versus cells which do not express ATIA (U87MG); TRAIL 20 ng/ml, 24 h
Description: Next, the sensitivity of ATIA expressing cells to TRAIL-induced cell death was examined. FIG. 19, left panel, is a western blot showing the expression of ATIA in various glioblastoma cell types.

In the case of [Cl-].[Cl-].[Co+2] [CoCl2], the ATIA protein expression (ATIA [1]) is reported as “considerably increased”.

C[C@@H]1C[C@@H]([C@H](O)CC2CC(=O)NC(=O)C2)C(=O)[C@@H](C)C1 [cycloheximide] was tested, and the apoptosis under hypoxia (A172 cells) was “undergo apoptosis”, the “effect on ATIA level” value (ATIA [2]; 0.5 ug, A172 Cells) was “causes the decrease of ATIA” and the “effect on ATIA levels” value (ATIA [2]; low levels (e.g. 0.1 μg-1.0 μg), tumor cells) was “reduces ATIA levels”.

With TNFα the moribund mice (ATIA+/+ and ATIA−/− mice; ATIA+/+ mice) was 20% and the moribund mice (ATIA+/+ and ATIA−/− mice; ATIA−/− mice) was “more than 85%”.

B1: TRAIL: tumour necrosis factor-related apoptosis-inducing ligand (protein, UniProt P50591 1-281, looked up)
Tumor necrosis factor ligand …: MAMMEVQGGPSLGQTCVLIVIFTVLLQSLCVAVTYVYFTNELKQMQDKYSKSGIACFLKEDDSYWDPNDEESMNSPCWQVKWQLRQLVRKMILRTSEETISTVQEKQQNISPLVRERGPQRVAAHITGTRGRSNTLSSPNSKNEKALGRKINSWESSRSGHSFLSNLHLRNGELVIHEKGFYYIYSQTYFRFQEEIKENTKNDKQMVQYIYKYTSYPDPILLMKSARNSCWSKDAEYGLYSIYQGGIFELKENDRIFVSVTNEHLIDMDHEASFFGAFLVG
In the case of B1, the “sensitivity to TRAIL-induced cell death” value [3] is reported as “much more sensitive to TRAIL-induced cell death”.
